Assay results as given in publication PMC5224920, “Assessing the mechanism and therapeutic potential of modulators of the human Mediator complex-associated protein kinases” (eLife, 2016).

Tested on: 12 single or co-culture in vitro tissue models of primary cells
Assay: Culture/co-culture cell model panel, extracellular biomarkers (DiscoveRx); as to CCL2/MCP-1: reference of the scale not given here; as to CD141/Thrombomodulin: reference of the scale not given here; as to CD142/Tissue Factor: reference of the scale not given here; as to CXCL8/IL-8: reference of the scale not given here; as to CXCL9/MIG: reference of the scale not given here; as to M-CSF: reference of the scale not given here; as to Proliferation: reference of the scale not given here; as to SRB: reference of the scale not given here
Assay type: cell-based, human

Work on `Cc1n[nH]c2ncc(C(=O)N3CCC[C@H]3c3ccc(Cl)cc3)cc12` [CMPD4] yielded a CCL2/MCP-1 (3C, 1.00E4 nM) of -0.095, a CD54/ICAM-1 (3C, 1.00E4 nM) of -0.015 and a CD62E/E-Selectin (3C, 1.00E4 nM) of 0.054. It also gave a CD87/uPAR (3C, 1.00E4 nM) of -0.432, a CD106/VCAM-1 (3C, 1.00E4 nM) of 0.073 and a CD141/Thrombomodulin (3C, 1.00E4 nM) of 0.088. For the same molecule, the “CD142/Tissue Factor” value (3C, 1.00E4 nM) was 0.112, the CXCL8/IL-8 (3C, 1.00E4 nM) was -0.381 and the CXCL9/MIG (3C, 1.00E4 nM) was -0.030. It also gave an HLA-DR (3C, 1.00E4 nM) of -0.292, a Proliferation (3C, 1.00E4 nM) of -0.144 and an SRB (3C, 1.00E4 nM) of -0.077. It also gave a CCL2/MCP-1 (3C, 1.11E3 nM) of -0.139, a CD54/ICAM-1 (3C, 1.11E3 nM) of -0.012 and a CD62E/E-Selectin (3C, 1.11E3 nM) of 0.043. For the same molecule, the CD87/uPAR (3C, 1.11E3 nM) was -0.475, the CD106/VCAM-1 (3C, 1.11E3 nM) was 0.074 and the CD141/Thrombomodulin (3C, 1.11E3 nM) was 0.143. The “CD142/Tissue Factor” value (3C, 1.11E3 nM) was 0.111, the CXCL8/IL-8 (3C, 1.11E3 nM) was -0.399 and the CXCL9/MIG (3C, 1.11E3 nM) was -0.035. The HLA-DR (3C, 1.11E3 nM) was -0.213, the Proliferation (3C, 1.11E3 nM) was -0.067 and the SRB (3C, 1.11E3 nM) was -0.088. It also gave a CCL2/MCP-1 (3C, 1.23E2 nM) of -0.155, a CD54/ICAM-1 (3C, 1.23E2 nM) of -0.013 and a CD62E/E-Selectin (3C, 1.23E2 nM) of 0.033. It also gave a CD87/uPAR (3C, 1.23E2 nM) of -0.463, a CD106/VCAM-1 (3C, 1.23E2 nM) of 0.092 and a CD141/Thrombomodulin (3C, 1.23E2 nM) of 0.134. For the same molecule, the “CD142/Tissue Factor” value (3C, 1.23E2 nM) was 0.145, the CXCL8/IL-8 (3C, 1.23E2 nM) was -0.289 and the CXCL9/MIG (3C, 1.23E2 nM) was -0.028. For the same molecule, the HLA-DR (3C, 1.23E2 nM) was -0.216, the Proliferation (3C, 1.23E2 nM) was -0.036 and the SRB (3C, 1.23E2 nM) was -0.101. It also gave a CCL2/MCP-1 (3C, 1.37E1 nM) of -0.054, a CD54/ICAM-1 (3C, 1.37E1 nM) of -0.029 and a CD62E/E-Selectin (3C, 1.37E1 nM) of 0.033. The CD87/uPAR (3C, 1.37E1 nM) was -0.383, the CD106/VCAM-1 (3C, 1.37E1 nM) was 0.060 and the CD141/Thrombomodulin (3C, 1.37E1 nM) was 0.107. The “CD142/Tissue Factor” value (3C, 1.37E1 nM) was 0.109, the CXCL8/IL-8 (3C, 1.37E1 nM) was -0.180 and the CXCL9/MIG (3C, 1.37E1 nM) was -0.010. It also gave an HLA-DR (3C, 1.37E1 nM) of -0.145, a Proliferation (3C, 1.37E1 nM) of -0.003 and an SRB (3C, 1.37E1 nM) of -0.076. It also gave a CCL2/MCP-1 (3C, 3.33E3 nM) of -0.119, a CD54/ICAM-1 (3C, 3.33E3 nM) of -0.027 and a CD62E/E-Selectin (3C, 3.33E3 nM) of 0.034. For the same molecule, the CD87/uPAR (3C, 3.33E3 nM) was -0.471, the CD106/VCAM-1 (3C, 3.33E3 nM) was 0.069 and the CD141/Thrombomodulin (3C, 3.33E3 nM) was 0.129. The “CD142/Tissue Factor” value (3C, 3.33E3 nM) was 0.128, the CXCL8/IL-8 (3C, 3.33E3 nM) was -0.412 and the CXCL9/MIG (3C, 3.33E3 nM) was -0.032. It also gave an HLA-DR (3C, 3.33E3 nM) of -0.242, a Proliferation (3C, 3.33E3 nM) of -0.090 and an SRB (3C, 3.33E3 nM) of -0.073. For the same molecule, the CCL2/MCP-1 (3C, 3.70E2 nM) was -0.153, the CD54/ICAM-1 (3C, 3.70E2 nM) was -0.078 and the CD62E/E-Selectin (3C, 3.70E2 nM) was 0.052. It also gave a CD87/uPAR (3C, 3.70E2 nM) of -0.455, a CD106/VCAM-1 (3C, 3.70E2 nM) of 0.094 and a CD141/Thrombomodulin (3C, 3.70E2 nM) of 0.139. For the same molecule, the “CD142/Tissue Factor” value (3C, 3.70E2 nM) was 0.142, the CXCL8/IL-8 (3C, 3.70E2 nM) was -0.363 and the CXCL9/MIG (3C, 3.70E2 nM) was -0.028. It also gave an HLA-DR (3C, 3.70E2 nM) of -0.210, a Proliferation (3C, 3.70E2 nM) of -0.026 and an SRB (3C, 3.70E2 nM) of -0.097. The CCL2/MCP-1 (3C, 4.12E1 nM) was -0.076, the CD54/ICAM-1 (3C, 4.12E1 nM) was -0.033 and the CD62E/E-Selectin (3C, 4.12E1 nM) was 0.032. The CD87/uPAR (3C, 4.12E1 nM) was -0.415, the CD106/VCAM-1 (3C, 4.12E1 nM) was 0.093 and the CD141/Thrombomodulin (3C, 4.12E1 nM) was 0.127. The “CD142/Tissue Factor” value (3C, 4.12E1 nM) was 0.136, the CXCL8/IL-8 (3C, 4.12E1 nM) was -0.222 and the CXCL9/MIG (3C, 4.12E1 nM) was -0.007. It also gave an HLA-DR (3C, 4.12E1 nM) of -0.208, a Proliferation (3C, 4.12E1 nM) of -0.018 and an SRB (3C, 4.12E1 nM) of -0.080. The CCL2/MCP-1 (3C, 4.57E0 nM) was 0.026, the CD54/ICAM-1 (3C, 4.57E0 nM) was -0.005 and the CD62E/E-Selectin (3C, 4.57E0 nM) was 0.022. For the same molecule, the CD87/uPAR (3C, 4.57E0 nM) was -0.265, the CD106/VCAM-1 (3C, 4.57E0 nM) was 0.039 and the CD141/Thrombomodulin (3C, 4.57E0 nM) was 0.096. For the same molecule, the “CD142/Tissue Factor” value (3C, 4.57E0 nM) was 0.092, the CXCL8/IL-8 (3C, 4.57E0 nM) was -0.109 and the CXCL9/MIG (3C, 4.57E0 nM) was -0.014. For the same molecule, the HLA-DR (3C, 4.57E0 nM) was -0.077, the Proliferation (3C, 4.57E0 nM) was -0.017 and the SRB (3C, 4.57E0 nM) was -0.052. For the same molecule, the CCL2/MCP-1 (/HDF3CT, 1.00E4 nM) was -0.123, the CD54/ICAM-1 (/HDF3CT, 1.00E4 nM) was -0.074 and the CD106/VCAM-1 (/HDF3CT, 1.00E4 nM) was 0.00544. For the same molecule, the CXCL8/IL-8 (/HDF3CT, 1.00E4 nM) was -0.159, the CXCL9/MIG (/HDF3CT, 1.00E4 nM) was -0.043 and the CXCL10/IP-10 (/HDF3CT, 1.00E4 nM) was -0.008. For the same molecule, the “Collagen I” value (/HDF3CT, 1.00E4 nM) was -0.050, the M-CSF (/HDF3CT, 1.00E4 nM) was -0.035 and the MMP-1 (/HDF3CT, 1.00E4 nM) was -0.057. It also gave a PAI-I (/HDF3CT, 1.00E4 nM) of -0.206, an SRB (/HDF3CT, 1.00E4 nM) of -0.005 and a TIMP-2 (/HDF3CT, 1.00E4 nM) of 0.00643. The CCL2/MCP-1 (/HDF3CT, 1.11E3 nM) was -0.116, the CD54/ICAM-1 (/HDF3CT, 1.11E3 nM) was -0.059 and the CD106/VCAM-1 (/HDF3CT, 1.11E3 nM) was 0.008. The CXCL8/IL-8 (/HDF3CT, 1.11E3 nM) was -0.199, the CXCL9/MIG (/HDF3CT, 1.11E3 nM) was -0.051 and the CXCL10/IP-10 (/HDF3CT, 1.11E3 nM) was 0.00172. For the same molecule, the “Collagen I” value (/HDF3CT, 1.11E3 nM) was -0.048, the M-CSF (/HDF3CT, 1.11E3 nM) was -0.052 and the MMP-1 (/HDF3CT, 1.11E3 nM) was -0.043. It also gave a PAI-I (/HDF3CT, 1.11E3 nM) of -0.122, an SRB (/HDF3CT, 1.11E3 nM) of 0.010 and a TIMP-2 (/HDF3CT, 1.11E3 nM) of 0.028. The CCL2/MCP-1 (/HDF3CT, 1.23E2 nM) was -0.004, the CD54/ICAM-1 (/HDF3CT, 1.23E2 nM) was -0.048 and the CD106/VCAM-1 (/HDF3CT, 1.23E2 nM) was 0.017. For the same molecule, the CXCL8/IL-8 (/HDF3CT, 1.23E2 nM) was -0.167, the CXCL9/MIG (/HDF3CT, 1.23E2 nM) was -0.040 and the CXCL10/IP-10 (/HDF3CT, 1.23E2 nM) was 0.011. For the same molecule, the “Collagen I” value (/HDF3CT, 1.23E2 nM) was -0.027, the M-CSF (/HDF3CT, 1.23E2 nM) was -0.051 and the MMP-1 (/HDF3CT, 1.23E2 nM) was 0.00166. It also gave a PAI-I (/HDF3CT, 1.23E2 nM) of -0.00646, an SRB (/HDF3CT, 1.23E2 nM) of 0.00373 and a TIMP-2 (/HDF3CT, 1.23E2 nM) of 0.061. It also gave a CCL2/MCP-1 (/HDF3CT, 1.37E1 nM) of 0.037, a CD54/ICAM-1 (/HDF3CT, 1.37E1 nM) of -0.040 and a CD106/VCAM-1 (/HDF3CT, 1.37E1 nM) of 0.019. For the same molecule, the CXCL8/IL-8 (/HDF3CT, 1.37E1 nM) was -0.056, the CXCL9/MIG (/HDF3CT, 1.37E1 nM) was 0.00152 and the CXCL10/IP-10 (/HDF3CT, 1.37E1 nM) was 0.022. The “Collagen I” value (/HDF3CT, 1.37E1 nM) was -0.019, the M-CSF (/HDF3CT, 1.37E1 nM) was -0.071 and the MMP-1 (/HDF3CT, 1.37E1 nM) was 0.083. It also gave a PAI-I (/HDF3CT, 1.37E1 nM) of 0.023, an SRB (/HDF3CT, 1.37E1 nM) of 0.004 and a TIMP-2 (/HDF3CT, 1.37E1 nM) of 0.069. For the same molecule, the CCL2/MCP-1 (/HDF3CT, 3.33E3 nM) was -0.101, the CD54/ICAM-1 (/HDF3CT, 3.33E3 nM) was -0.068 and the CD106/VCAM-1 (/HDF3CT, 3.33E3 nM) was 0.005. The CXCL8/IL-8 (/HDF3CT, 3.33E3 nM) was -0.189, the CXCL9/MIG (/HDF3CT, 3.33E3 nM) was -0.053 and the CXCL10/IP-10 (/HDF3CT, 3.33E3 nM) was 0.002. For the same molecule, the “Collagen I” value (/HDF3CT, 3.33E3 nM) was -0.071, the M-CSF (/HDF3CT, 3.33E3 nM) was -0.054 and the MMP-1 (/HDF3CT, 3.33E3 nM) was -0.042. For the same molecule, the PAI-I (/HDF3CT, 3.33E3 nM) was -0.184, the SRB (/HDF3CT, 3.33E3 nM) was 0.008 and the TIMP-2 (/HDF3CT, 3.33E3 nM) was 0.012. It also gave a CCL2/MCP-1 (/HDF3CT, 3.70E2 nM) of -0.041, a CD54/ICAM-1 (/HDF3CT, 3.70E2 nM) of -0.059 and a CD106/VCAM-1 (/HDF3CT, 3.70E2 nM) of 0.017. For the same molecule, the CXCL8/IL-8 (/HDF3CT, 3.70E2 nM) was -0.180, the CXCL9/MIG (/HDF3CT, 3.70E2 nM) was -0.046 and the CXCL10/IP-10 (/HDF3CT, 3.70E2 nM) was 0.00747. For the same molecule, the “Collagen I” value (/HDF3CT, 3.70E2 nM) was -0.040.
